For 31 molecules, IC50 results are on record in patent US11524968B2, “Heterocyclic compound as a protein kinase inhibitor” (HK inno.N Corporation, priority 2017, dated 2022).

pIC50: −log10 of the molar value. Bounds are passed on as bounds.

Chain of JAK1 (P23458 whole entry): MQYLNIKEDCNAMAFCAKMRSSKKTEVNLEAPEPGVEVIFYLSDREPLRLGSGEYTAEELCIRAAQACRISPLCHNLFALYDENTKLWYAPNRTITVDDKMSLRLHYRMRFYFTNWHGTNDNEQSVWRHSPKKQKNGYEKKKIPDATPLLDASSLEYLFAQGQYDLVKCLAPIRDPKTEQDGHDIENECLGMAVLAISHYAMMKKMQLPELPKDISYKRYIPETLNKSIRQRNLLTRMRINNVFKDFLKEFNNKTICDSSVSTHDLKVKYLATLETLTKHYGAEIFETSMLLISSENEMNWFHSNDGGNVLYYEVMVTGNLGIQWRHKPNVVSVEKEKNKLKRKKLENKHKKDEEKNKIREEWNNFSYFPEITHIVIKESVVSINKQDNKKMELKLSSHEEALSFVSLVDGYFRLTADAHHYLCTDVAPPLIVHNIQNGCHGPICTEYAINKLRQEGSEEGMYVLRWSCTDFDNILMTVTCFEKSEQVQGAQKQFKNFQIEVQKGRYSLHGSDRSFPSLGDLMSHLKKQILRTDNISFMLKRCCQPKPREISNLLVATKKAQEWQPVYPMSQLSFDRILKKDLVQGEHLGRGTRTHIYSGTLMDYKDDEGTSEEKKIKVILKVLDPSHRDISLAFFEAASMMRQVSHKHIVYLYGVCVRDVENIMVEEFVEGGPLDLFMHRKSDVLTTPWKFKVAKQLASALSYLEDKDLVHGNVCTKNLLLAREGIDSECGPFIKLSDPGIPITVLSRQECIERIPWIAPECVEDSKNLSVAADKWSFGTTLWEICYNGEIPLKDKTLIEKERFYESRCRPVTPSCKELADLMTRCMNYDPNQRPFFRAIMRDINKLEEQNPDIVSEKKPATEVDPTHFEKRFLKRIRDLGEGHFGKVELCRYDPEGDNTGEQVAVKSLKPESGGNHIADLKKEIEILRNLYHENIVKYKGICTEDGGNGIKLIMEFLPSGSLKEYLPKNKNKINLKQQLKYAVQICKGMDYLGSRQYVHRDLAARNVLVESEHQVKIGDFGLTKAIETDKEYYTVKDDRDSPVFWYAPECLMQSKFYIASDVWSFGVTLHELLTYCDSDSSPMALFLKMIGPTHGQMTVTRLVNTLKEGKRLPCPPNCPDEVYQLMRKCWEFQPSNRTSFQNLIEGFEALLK

The assay has as its target JAK1 (Homo sapiens (Human), UniProt P23458). Description: Analysis of JAK1 activity inhibition ability (ADP-Glo Kinase Assay). The format is biochemical. The settings on record: JAK1 enzyme, ADP-Glo luminescence, ATP 250 uM, IRS-itide substrate, 30° C. 40 minutes; read-out: IC50. A digest of the protocol: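 JAK1 enzyme, IRS-itide substrate (40 ng/mL) and 250 uM ATP, both as prepared in kinase buffer (Tris-HCl pH 7.5, MgCl2, BSA, DTT), reacted with compound 40 min at 30 °C. ADP formed was detected by ADP-Glo luminescence; IC50 is the concentration giving 50% inhibition versus control.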
In general, pIC50 refers to the IC50 on a negative log10 scale, so that one unit is a factor of ten. Consider `CS(=O)(=O)N1CCC(n2cc(-c3cc(NC(=O)C4CC4)nc4[nH]ccc34)cn2)CC1` [Example 607, N-(4-(1-(1-(methylsulfonyl)piperidin-4-yl)-1H-pyrazol-4-yl)-1H-pyrrolo[2,3-b]pyridin-6-yl)cyclopropanecarboxamide], for which the negative logarithm of the IC50 (pIC50) is 6.70 to 7.70.

With `O=C(Nc1cc(-c2ccc(NS(=O)(=O)c3cccc(F)c3)cc2)c2cc[nH]c2n1)C1CC1` [Example 25, N-(4-(4-((3-fluorophenyl)sulfonamido)phenyl)-1H-pyrrolo[2,3-b]pyridin-6-yl)cyclopropanecarboxamide], the negative-log IC50 (pIC50) was more than 7.70.

Turning to `CC1CN(C(=O)c2ccc3c(c2)OCO3)CC=C1c1cc(NC(=O)C2CC2)nc2[nH]ccc12` (stereo not shown) [Example 326, N-(4-(1-(benzo[d][1,3]dioxole-5-carbonyl)-3-methyl-1,2,3,6-tetrahydropyridin-4-yl)-1H-pyrrolo[2,3-b]pyridin-6-yl)cyclopropanecarboxamide], the pIC50 was 6.70 to 7.70.

For `N#CCC1(N2CC=C(c3cc(NC(=O)C4CC4)nc4[nH]ccc34)CC2)CN(C(=O)CC(F)(F)F)C1` [Example 625, N-(4-(1-(3-(cyanomethyl)-1-(3,3,3-trifluoropropanoyl)azetidin-3-yl)-1,2,3,6-tetrahydropyridin-4-yl)-1H-pyrrolo[2,3-b]pyridin-6-yl)cyclopropanecarboxamide], the pIC50 is 6.70 to 7.70.

Consider `CCS(=O)(=O)NC1CC=C(c2cc(NC(=O)C3CC3)nc3[nH]ccc23)CC1` (stereo not shown) [Example 151, N-(4-(4-(ethylsulfonamido)cyclohex-1-en-1-yl)-1H-pyrrolo[2,3-b]pyridin-6-yl)cyclopropanecarboxamide], for which the negative-log IC50 (pIC50) is 6.70 to 7.70.

With `O=C(Nc1cc(-c2ccc(C(=O)N3CCSCC3)cc2)c2cc[nH]c2n1)C1CC1` [Example 521, N-(4-(4-(thiomorpholine-4-carbonyl)phenyl)-1H-pyrrolo[2,3-b]pyridin-6-yl)cyclopropanecarboxamide], the negative logarithm of the IC50 (pIC50) is 6.70 to 7.70.

Consider `CCS(=O)(=O)Nc1ccc(-c2cc(NC(=O)C3CC3)nc3[nH]ccc23)cc1C#N` [Example 59, N-(4-(3-cyano-4-(ethylsulfonamido)phenyl)-1H-pyrrolo[2,3-b]pyridin-6-yl)cyclopropanecarboxamide], for which the pIC50 was less than 6.70.

For `CCCCS(=O)(=O)Nc1ccc(-c2cc(NC(=O)C3CC3)nc3[nH]ccc23)c(CC)c1` [Example 116, N-(4-(4-(butylsulfonamido)-2-ethylphenyl)-1H-pyrrolo[2,3-b]pyridin-6-yl)cyclopropanecarboxamide], the pIC50 is 6.70 to 7.70.

`CS(=O)(=O)N1CCN(Cc2ccc(-c3cc(NC(=O)C4CC4)nc4[nH]ccc34)cc2)CC1` [Example 587, N-(4-(4-((4-(methylsulfonyl)piperazin-1-yl)methyl)phenyl)-1H-pyrrolo[2,3-b]pyridin-6-yl)cyclopropanecarboxamide]: the negative logarithm of the IC50 (pIC50) is more than 7.70.

Turning to `O=C(Nc1cc(C2=CCN(C(=O)C3CC3)CC2)c2cc[nH]c2n1)C1CC1` [Example 264, N-(4-(1-(cyclopropanecarbonyl)-1,2,3,6-tetrahydropyridin-4-yl)-1H-pyrrolo[2,3-b]pyridin-6-yl)cyclopropanecarboxamide], the pIC50 is 6.70 to 7.70.

Regarding `O=C(Nc1cc(-c2ccc(NS(=O)(=O)c3ccc(F)c(F)c3)cc2C(F)(F)F)c2cc[nH]c2n1)C1CC1` [Example 121, N-(4-(4-((3,4-difluorophenyl)sulfonamido)-2-(trifluoromethyl)phenyl)-1H-pyrrolo[2,3-b]pyridin-6-yl)cyclopropanecarboxamide], the negative-log IC50 (pIC50) is 6.70 to 7.70.

Regarding `C[C@H]1C=C(c2cc(NC(=O)C3CC3)nc3[nH]ccc23)CCN1C(=O)CC#N` [Example 390, (S)—N-(4-(1-(2-cyanoacetyl)-6-methyl-1,2,3,6-tetrahydropyridin-4-yl)-1H-pyrrolo[2,3-b]pyridin-6-yl)cyclopropanecarboxamide], the pIC50 is more than 7.70.

As to `Cc1cc(NS(=O)(=O)N(C)CC(F)(F)F)ccc1-c1cc(NC(=O)C2CC2)nc2[nH]ccc12` [Example 228, N-(4-(2-methyl-4-((N-methyl-N-(2,2,2-trifluoroethyl)sulfamoyl)amino)phenyl)-1H-pyrrolo[2,3-b]pyridin-6-yl)cyclopropanecarboxamide], the negative-log IC50 (pIC50) is more than 7.70.

With `CCCNC(=S)Nc1ccc(-c2nc(NC(=O)C3CC3)nc3[nH]ccc23)cc1` [Example 467, N-(4-(4-(3-propylthioureido)phenyl)-7H-pyrrolo[2,3-d]pyrimidin-2-yl)cyclopropanecarboxamide], the pIC50 is 6.70 to 7.70.

`CCCS(=O)(=O)Nc1ccc(-c2cc(NC(=O)C3CC3)nc3[nH]ccc23)c(C(F)(F)F)c1` [Example 119, N-(4-(4-(propylsulfonamido)-2-(trifluoromethyl)phenyl)-1H-pyrrolo[2,3-b]pyridin-6-yl)cyclopropanecarboxamide]: the pIC50 was 6.70 to 7.70.

Take `O=C(Nc1cc(C2CC3CCC(C2)N3S(=O)(=O)C2CC2)c2cc[nH]c2n1)C1CC1` (stereo not shown) [Example 647, N-(4-(8-(cyclopropylsulfonyl)-8-azabicyclo[3.2.1]octan-3-yl)-1H-pyrrolo[2,3-b]pyridin-6-yl)cyclopropanecarboxamide]: the pIC50 is less than 6.70.

`O=C(Nc1cc(-c2ccc(NS(=O)(=O)C3CCCCC3)c(F)c2)c2cc[nH]c2n1)C1CC1` [Example 68, N-(4-(4-(cyclohexanesulfonamido)-3-fluorophenyl)-1H-pyrrolo[2,3-b]pyridin-6-yl)cyclopropanecarboxamide]: the pIC50 is more than 7.70.

As for `O=C(Nc1cc(-c2ccc(NS(=O)(=O)N3CCCCC3)c(F)c2)c2cc[nH]c2n1)C1CC1` [Example 224, N-(4-(3-fluoro-4-(piperidine-1-sulfonamido)phenyl)-1H-pyrrolo[2,3-b]pyridin-6-yl)cyclopropanecarboxamide], the negative logarithm of the IC50 (pIC50) is more than 7.70.

As to `CC1CC1C(=O)Nc1cc(-c2ccc(CN3CCS(=O)(=O)CC3)cc2)c2cc[nH]c2n1` (stereo not shown) [Example 588, N-(4-(4-((1,1-dioxidothiomorpholino)methyl)phenyl)-1H-pyrrolo[2,3-b]pyridin-6-yl)-2-methylcyclopropane-1-carboxamide], the pIC50 was more than 7.70.

In the case of `CCS(=O)(=O)Nc1ccc(-c2cc(NC(=O)C3CC3)nc3[nH]ccc23)c(C)c1C` [Example 131, N-(4-(4-(ethylsulfonamido)-2,3-dimethylphenyl)-1H-pyrrolo[2,3-b]pyridin-6-yl)cyclopropanecarboxamide], the pIC50 is 6.70 to 7.70.

As to `CC(C#N)C(=O)N1CC=C(c2cc(NC(=O)C3CC3)nc3[nH]ccc23)CC1` (stereo not shown) [Example 269, N-(4-(1-(2-cyanopropanoyl)-1,2,3,6-tetrahydropyridin-4-yl)-1H-pyrrolo[2,3-b]pyridin-6-yl)cyclopropanecarboxamide], the negative-log IC50 (pIC50) was more than 7.70.

Take `Cc1cc(NS(=O)(=O)C2CC2)ccc1-c1cc(NC(=O)C2CC2)nc2[nH]ccc12` [Example 90, N-(4-(4-(cyclopropanesulfonamido)-2-methylphenyl)-1H-pyrrolo[2,3-b]pyridin-6-yl)cyclopropanecarboxamide]: the pIC50 is 6.70 to 7.70.

On to `N#C[C@H]1CC1C(=O)N1CC=C(c2cc(NC(=O)C3CC3)nc3[nH]ccc23)CC1` (stereo in doubt) [Example 267, N-(4-(1-((1S,2S)-2-cyanocyclopropane-1-carbonyl)-1,2,3,6-tetrahydropyridin-4-yl)-1H-pyrrolo[2,3-b]pyridin-6-yl)cyclopropanecarboxamide], for which the negative logarithm of the IC50 (pIC50) is more than 7.70.

Regarding `N#CCC1(N2CC=C(c3cc(NC(=O)C4CC4)nc4[nH]ccc34)CC2)COC1` [Example 612, N-(4-(1-(3-(cyanomethyl)oxetan-3-yl)-1,2,3,6-tetrahydropyridin-4-yl)-1H-pyrrolo[2,3-b]pyridine-6-yl) cyclopropanecarboxamide], the pIC50 is less than 6.70.

Consider `CCc1cc(-c2cc(NC(=O)C3CC3)nc3[nH]ccc23)ccc1NS(=O)(=O)C1CCC1` [Example 128, N-(4-(4-(cyclobutanesulfonamido)-3-ethylphenyl)-1H-pyrrolo[2,3-b]pyridin-6-yl)cyclopropanecarboxamide], for which the negative-log IC50 (pIC50) is more than 7.70.

With `CC1CC1C(=O)NC1CC=C(c2cc(NC(=O)C3CC3)nc3[nH]ccc23)CC1` (stereo not shown) [Example 244, N-(4-(6-(cyclopropanecarboxamido)-1H-pyrrolo[2,3-b]pyridin-4-yl)cyclohex-3-en-1-yl)-2-methylcyclopropane-1-carboxamide], the negative logarithm of the IC50 (pIC50) is less than 6.70.

Regarding `Cc1cc(C(=O)NCC#N)ccc1-c1cc(NC(=O)C2CC2)nc2[nH]ccc12` [Example 526, N-(cyanomethyl)-4-(6-(cyclopropanecarboxamido)-1H-pyrrolo[2,3-b]pyridin-4-yl)-3-methylbenzamide], the negative-log IC50 (pIC50) is 6.70 to 7.70.

Take `O=C(Nc1cc(-c2ccc(NS(=O)(=O)C3CCS(=O)(=O)CC3)cc2)c2cc[nH]c2n1)C1CC1` [Example 9, N-(4-(4-((1,1-dioxidotetrahydro-2H-thiopyran)-4-sulfonamido)phenyl)-1H-pyrrolo[2,3-b]pyridin-6-yl)cyclopropanecarboxamide]: the pIC50 is more than 7.70.

In the case of `N#CCOC(=O)N1CC=C(c2cc(NC(=O)C3CC3)nc3[nH]ccc23)CC1` [Example 455, cyanomethyl 4-(6-(cyclopropanecarboxamido)-1H-pyrrolo[2,3-b]pyridin-4-yl)-3,6-dihydropyridine-1 (2H)-carboxylate], the negative logarithm of the IC50 (pIC50) was more than 7.70.

On to `CCCS(=O)(=O)Nc1ccc(-c2cc(NC(=O)C3CC3)nc3[nH]ccc23)cc1Cl` [Example 63, N-(4-(3-chloro-4-(propylsulfonamido)phenyl)-1H-pyrrolo[2,3-b]pyridin-6-yl)cyclopropanecarboxamide], for which the negative-log IC50 (pIC50) was 6.70 to 7.70.

In the case of `O=C(Nc1cc(-c2ccc(NC3CCN(C(=O)c4cc(F)cc(F)c4)CC3)cc2)c2cc[nH]c2n1)C1CC1` [Example 508, N-(4-(4-((1-(3,5-difluorobenzoyl)piperidin-4-yl)amino)phenyl)-1H-pyrrolo[2,3-b]pyridin-6-yl)cyclopropanecarboxamide], the negative-log IC50 (pIC50) was less than 6.70.
